# Laboratory results as given in article PMC5962351 (Nature, 2018).
# Experiments:
# Type in all cases: binding
# [1] = target: GluN1 (GluN1/GluN2B NMDA receptor) (Xenopus laevis, UniProt A0A1L8F5J9+A7XY94)
# [2] = target: GluN1 (GluN1/GluN2B ∆ATD NMDA receptor) (Xenopus laevis, UniProt A0A1L8F5J9+A7XY94, A0A1L8F5J9:DEL23-393/A0A1L8F5J9:G610R); assay: X-ray crystal structure
# [3] = target: GluN1 (GluN1/GluN2B NMDA receptor) (Xenopus laevis, UniProt A0A1L8F5J9+A7XY94, A0A1L8F5J9:G610R); assay: competition with 3H-MK-801, scintillation proximity assay
SMILES,Kd [1],Kd [2],Ki [3]
C[C@]12N[C@H](Cc3ccccc31)c1ccccc12 [MK-801],111 ± 8.5 nM,1600 ± 300 nM,–
CC12CC3CC(C)(C1)CC(N)(C3)C2 [memantine],–,–,~147000 nM
